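Test compounds were applied to cells in 96-well plates for 48 hours at 5 doses. Abbreviation: GI50, concentration required for 50% inhibition of growth.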 The source made the active and inactive calls. No stated cut-off is given here; in the data, active = GI50 up to about 1.1 µM and inactive = higher.
Columns and labels:
Test in all cases: inhibition of tumour cell growth, NCI panel, 48 h
SNB-19 = tested on: SNB-19
OVCAR-4 = tested on: OVCAR-4
BT-549 = tested on: BT-549
T47D = tested on: T47D
Hs-578T = tested on: Hs-578T
Malme-3M = tested on: Malme-3M
786-0 = tested on: 786-0
CCRF-CEM = tested on: CCRF-CEM
A498 = tested on: A498
SK-MEL-28 = tested on: SK-MEL-28
MCF7 = tested on: MCF7
K562 = tested on: K562
PC-3 = tested on: PC-3
MDA-MB-231 = tested on: MDA-MB-231
SF-295 = tested on: SF-295
OVCAR-5 = tested on: OVCAR-5
ACHN = tested on: ACHN
HCC 2998 = tested on: HCC 2998
HOP-92 = tested on: HOP-92
SN12C = tested on: SN12C

SMILES | GI50 (SNB-19) | GI50 (OVCAR-4) | GI50 (BT-549) | GI50 (T47D) | GI50 (Hs-578T) | GI50 (Malme-3M) | GI50 (786-0) | GI50 (CCRF-CEM) | GI50 (A498) | GI50 (SK-MEL-28) | GI50 (MCF7) | GI50 (K562) | GI50 (PC-3) | GI50 (MDA-MB-231) | GI50 (SF-295) | GI50 (OVCAR-5) | GI50 (ACHN) | GI50 (HCC 2998) | GI50 (HOP-92) | GI50 (SN12C)
Nc1cc(S(N)(=O)=O)ccc1SSc1ccc(S(N)(=O)=O)cc1N | > 100 µM (inactive) | > 100 µM (inactive) | > 100 µM (inactive) | > 100 µM (inactive) | > 100 µM (inactive) | > 100 µM (inactive) | > 100 µM (inactive) | 8.49 µM (inactive) | > 100 µM (inactive) | > 100 µM (inactive) | > 100 µM (inactive) | > 96.6 µM (inactive) | > 100 µM (inactive) | > 100 µM (inactive) | > 100 µM (inactive) | > 100 µM (inactive) | > 62.5 µM (inactive) | > 100 µM (inactive) | > 100 µM (inactive) | > 100 µM (inactive)
Nc1ccc(-c2nc3ccccc3s2)cc1Br | 60.4 µM (inactive) | > 100 µM (inactive) | > 56.8 µM (inactive) | 58.1 µM (inactive) | 24 µM (inactive) | > 100 µM (inactive) | 76.9 µM (inactive) | 32 µM (inactive) | 2.44 µM (inactive) | > 100 µM (inactive) | < 0.01 µM (active) | 87.1 µM (inactive) | 69.7 µM (inactive) | 52.6 µM (inactive) | 66.7 µM (inactive) | 0.134 µM (active) | > 80.9 µM (inactive) | 72.6 µM (inactive) | 26.5 µM (inactive) | > 100 µM (inactive)
c1csc(-c2cscc2-c2cccs2)c1 | > 100 µM (inactive) | 46 µM (inactive) | 63.4 µM (inactive) | > 100 µM (inactive) | 54.8 µM (inactive) |  | 43.6 µM (inactive) | 44.1 µM (inactive) | > 100 µM (inactive) | > 100 µM (inactive) | 20.2 µM (inactive) | 37.3 µM (inactive) | 5.38 µM (inactive) | > 100 µM (inactive) | 32.9 µM (inactive) | 24.1 µM (inactive) | > 100 µM (inactive) | 22.9 µM (inactive) | 78.5 µM (inactive) | > 100 µM (inactive)
CO/N=C(/C(=O)N(C(=O)/C(=N/OC)c1csc(NC(c2ccccc2)(c2ccccc2)c2ccccc2)n1)n1cnn(CC(=O)OC(C)(C)C)c1=O)c1csc(NC(c2ccccc2)(c2ccccc2)c2ccccc2)n1 | > 10 µM (inactive) | > 10 µM (inactive) | 2.16 µM (inactive) | > 10 µM (inactive) | > 10 µM (inactive) | > 10 µM (inactive) | > 10 µM (inactive) | > 10 µM (inactive) | > 10 µM (inactive) | > 10 µM (inactive) | > 10 µM (inactive) | > 10 µM (inactive) | 1.87 µM (inactive) | > 10 µM (inactive) | > 10 µM (inactive) | > 10 µM (inactive) | > 10 µM (inactive) | > 10 µM (inactive) |  | > 10 µM (inactive)
O=c1c2cc3c(=O)n4c(cc(-c5ccccc5)c5cc(Cl)ccc54)nc3cc2nc2cc(-c3ccccc3)c3cc(Cl)ccc3n12 | 45.6 µM (inactive) |  | > 100 µM (inactive) | > 100 µM (inactive) | 43.4 µM (inactive) |  | 64.1 µM (inactive) | > 100 µM (inactive) | > 100 µM (inactive) | > 100 µM (inactive) | > 100 µM (inactive) | > 100 µM (inactive) | > 100 µM (inactive) | 39.4 µM (inactive) | > 100 µM (inactive) | > 100 µM (inactive) | 76.6 µM (inactive) | > 100 µM (inactive) | > 100 µM (inactive) | > 100 µM (inactive)
COc1cc(/C=C/C(=N\NS(=O)(=O)c2ccc(C)cc2)c2sc(NNC(C)=O)nc2C)ccc1O | > 100 µM (inactive) | > 100 µM (inactive) | > 100 µM (inactive) | > 100 µM (inactive) | > 100 µM (inactive) | > 100 µM (inactive) | > 100 µM (inactive) | > 100 µM (inactive) | > 100 µM (inactive) | > 100 µM (inactive) | > 100 µM (inactive) |  | > 100 µM (inactive) | 69.2 µM (inactive) | > 100 µM (inactive) | > 100 µM (inactive) | > 100 µM (inactive) | > 100 µM (inactive) | > 100 µM (inactive) | > 100 µM (inactive)
C=C1C(C2(C)C(OC(C)=O)CC(=O)OC(C)(COC(C)=O)C2CC(=O)OC)C(OC=O)C(OC(=O)C(O)C(C)CC)C2(C)C(c3ccoc3)CC(=O)C12O (stereo not given) |  | 6.28 µM (inactive) | 4.33 µM (inactive) | > 57.7 µM (inactive) | 8.05 µM (inactive) |  | 5.98 µM (inactive) | 0.65 µM (active) | 4.52 µM (inactive) | 10.8 µM (inactive) | > 25.5 µM (inactive) | 4.49 µM (inactive) | 5.52 µM (inactive) | 4.69 µM (inactive) | 4.32 µM (inactive) | > 100 µM (inactive) | 4.2 µM (inactive) | 0.16 µM (active) | 7.35 µM (inactive) | 10.8 µM (inactive)
CC(C)/C(Cl)=N\OC(=O)Nc1ccccc1F | > 42.9 µM (inactive) | 17.3 µM (inactive) | 14.3 µM (inactive) | 20.9 µM (inactive) | 25.9 µM (inactive) | 3.94 µM (inactive) | 16.4 µM (inactive) | 0.741 µM (active) | 14.9 µM (inactive) | 16.6 µM (inactive) | 5.64 µM (inactive) | 1.95 µM (inactive) | 17.2 µM (inactive) | 8.81 µM (inactive) | 16.3 µM (inactive) | 18.5 µM (inactive) | 12.4 µM (inactive) | 14.9 µM (inactive) | 2.16 µM (inactive) | 10 µM (inactive)
CCc1c(Cl)nc(Cl)nc1Cl | 1.45 µM (inactive) | 0.867 µM (active) | 0.0199 µM (active) | 0.339 µM (active) | 1.13 µM (inactive) | 0.0509 µM (active) | 0.122 µM (active) | < 0.0121 µM (active) | 5.79 µM (inactive) | 1.63 µM (inactive) | 0.0578 µM (active) | 0.0208 µM (active) | 0.698 µM (active) | 0.346 µM (active) | 2.05 µM (inactive) | 0.324 µM (active) | 0.076 µM (active) | 0.214 µM (active) | 0.565 µM (active) | 0.333 µM (active)
NC(=O)CSc1c2cc(O)ccc2nc2ccc(O)cc12 | > 10 µM (inactive) | > 10 µM (inactive) | > 10 µM (inactive) | > 10 µM (inactive) | > 10 µM (inactive) | > 10 µM (inactive) | > 10 µM (inactive) | > 10 µM (inactive) | > 10 µM (inactive) | > 10 µM (inactive) | > 10 µM (inactive) | > 10 µM (inactive) | > 10 µM (inactive) | > 10 µM (inactive) | > 10 µM (inactive) | > 10 µM (inactive) | > 10 µM (inactive) | > 10 µM (inactive) | > 10 µM (inactive) | > 10 µM (inactive)
COc1ccc(C(=O)N(Cc2cccnc2)C(=S)N(Cc2cccnc2)C(=O)c2ccc(OC)cc2)cc1 | 40.3 µM (inactive) | 37.4 µM (inactive) | > 100 µM (inactive) | > 100 µM (inactive) | > 100 µM (inactive) | > 100 µM (inactive) | > 100 µM (inactive) | > 100 µM (inactive) | > 100 µM (inactive) | > 100 µM (inactive) | > 100 µM (inactive) | > 100 µM (inactive) | > 100 µM (inactive) | > 100 µM (inactive) | 57.8 µM (inactive) | > 100 µM (inactive) | > 100 µM (inactive) | > 100 µM (inactive) | 36.6 µM (inactive) | > 100 µM (inactive)
O[C@H]1[C@H](O)[C@H](O)CN2CCC[C@@H](O)[C@H]12 | > 100 µM (inactive) | > 100 µM (inactive) | > 100 µM (inactive) | > 100 µM (inactive) | > 100 µM (inactive) |  | > 100 µM (inactive) | > 100 µM (inactive) | > 100 µM (inactive) | > 100 µM (inactive) | > 100 µM (inactive) | > 100 µM (inactive) | > 100 µM (inactive) | > 100 µM (inactive) | > 100 µM (inactive) | > 100 µM (inactive) | > 100 µM (inactive) | > 100 µM (inactive) | > 100 µM (inactive) | > 100 µM (inactive)
CCn1c(=O)ccc2ccc(N(CCO)CCO)nc21 | > 100 µM (inactive) | > 100 µM (inactive) | > 100 µM (inactive) | > 100 µM (inactive) | > 100 µM (inactive) | > 100 µM (inactive) | > 100 µM (inactive) | > 100 µM (inactive) | > 100 µM (inactive) | > 100 µM (inactive) | > 100 µM (inactive) | > 100 µM (inactive) | > 100 µM (inactive) | > 100 µM (inactive) | > 100 µM (inactive) | > 100 µM (inactive) | > 100 µM (inactive) | > 100 µM (inactive) |  | > 100 µM (inactive)
O=c1[nH]cnc2c1ncn2[C@@H]1C[C@H]1CO | > 100 µM (inactive) | > 100 µM (inactive) | > 100 µM (inactive) | > 100 µM (inactive) | > 100 µM (inactive) | > 100 µM (inactive) | > 100 µM (inactive) | > 100 µM (inactive) | > 100 µM (inactive) | > 100 µM (inactive) | > 100 µM (inactive) | > 100 µM (inactive) | > 100 µM (inactive) | > 100 µM (inactive) |  | > 100 µM (inactive) | > 100 µM (inactive) | > 100 µM (inactive) | > 100 µM (inactive) | > 100 µM (inactive)

From ChEMBL document CHEMBL1201862, “PubChem BioAssay data set” (2004)
